Test results reported in the supplement of paper PMC13380429.

Legend:
[1] = system: A549-ACE2 infected with SARS-CoV-2; test: cell count relative to DMSO; higher = less toxic; conditions: 24 h
Caco-2 [2] = test: relative viability EC50 (midpoint between 100% and the lowest measured viability); higher = less toxic; conditions: 72 h
Vero E6 [3] = test: as above; conditions: 72 h
Calu-3 [4] = test: as above; conditions: 72 h
HepG2 [5] = test: drug sensitivity score (DSS) for viability; higher = more toxic; extreme values may be limits of the assay; conditions: 72 h
Caco-2 [6] = test: as above; conditions: 72 h
Vero E6 [7] = test: as above; conditions: 72 h
U2OS [8] = test: as above; conditions: 72 h
Calu-3 [9] = test: as above; conditions: 72 h
[10] = system: A549-ACE2 infected with SARS-CoV-2; test: SARS-CoV-2 infection rate relative to DMSO; higher = more infection; conditions: 24 h
A549-ACE2 = test: drug-induced phospholipidosis relative to tamoxifen; higher = more phospholipidosis
[11] = system: A549-ACE2 infected with SARS-CoV-2; test: morphology score (similarity to uninfected cells); higher = more like uninfected cells; conditions: 24 h
HepG2 [12] = test: cell viability relative to DMSO; higher = less toxic; conditions: 72 h
Caco-2 [13] = test: as above; conditions: 72 h
Vero E6 [14] = test: as above; conditions: 72 h
U2OS [15] = test: as above; conditions: 72 h
Calu-3 [16] = test: as above; conditions: 72 h
HepG2 [17] = test: relative viability EC50 (midpoint between 100% and the lowest measured viability); higher = less toxic; conditions: 72 h
U2OS [18] = test: as above; conditions: 72 h

COc1cc(-c2cc(-c3cccc(O)c3)cnc2N)cc(OC)c1OC
Conditions	SARS-CoV-2 infection rate, [10] [%]	cell count, [1] [%]	cell viability, Caco-2 [13] [%]	cell viability, Calu-3 [16] [%]	cell viability, HepG2 [12] [%]	cell viability, U2OS [15] [%]	cell viability, Vero E6 [14] [%]	morphology score, [11]
1 nM	–	–	101	87.7	94.1	95.8	99.7	–
10 nM	–	–	103	93.6	94.6	93.7	103	–
100 nM	–	–	105	92.3	93.8	101	97.4	–
0.3 µM	101	100	–	–	–	–	–	0.01
1000 nM	–	–	101	87.6	98.4	91	106	–
3 µM	103	99	–	–	–	–	–	0.39
10 µM	93	105	–	–	–	–	–	0.31
10000 nM	–	–	79.4	84.6	74.8	64.5	99	–
30 µM	91	84	–	–	–	–	–	0.16

Conditions	drug sensitivity score	relative viability EC50 [µM]
Caco-2 [2]	–	> 10
Caco-2 [6]	0.6	–
Calu-3 [4]	–	> 10
Calu-3 [9]	0	–
HepG2 [5]	1.2	–
U2OS [8]	3.1	–
Vero E6 [3]	–	> 10
Vero E6 [7]	0	–

drug-induced phospholipidosis [%], A549-ACE2
Conditions	0.3 µM	0.833333 µM	3.33333 µM	6.66667 µM	10 µM	30 µM
24 h	4	3.08	6.21	12	15.9	47.9
48 h	3.78	1.52	1.5	4.27	9.43	62.2
72 h	4.57	0.15	0.0757	1.61	5.86	65.7

Oc1cc(CNC(=S)/C=C/c2cc(O)c(O)c(Br)c2)cc(O)c1O [NT157]
Conditions	SARS-CoV-2 infection rate, [10] [%]	cell count, [1] [%]	cell viability, Caco-2 [13] [%]	cell viability, Calu-3 [16] [%]	cell viability, HepG2 [12] [%]	cell viability, U2OS [15] [%]	cell viability, Vero E6 [14] [%]	morphology score, [11]
1 nM	–	–	78.4	104	101	102	89.7	–
10 nM	–	–	102	101	101	98.2	102	–
0.1 µM	104	104	–	–	–	–	–	0.06
100 nM	–	–	99.4	109	95.6	99.8	92.8	–
0.3 µM	103	107	–	–	–	–	–	0.02
1 µM	105	106	–	–	–	–	–	-0.23
1000 nM	–	–	90.2	103	74.1	64.9	91	–
3 µM	101	93	–	–	–	–	–	-0.08
10000 nM	–	–	25.7	25.6	25.4	23.5	32.9	–

Conditions	drug sensitivity score	relative viability EC50 [µM]
Caco-2 [2]	–	2.1
Caco-2 [6]	5.8	–
Calu-3 [4]	–	3.38
Calu-3 [9]	3.9	–
HepG2 [5]	7.4	–
HepG2 [17]	–	1.35
U2OS [8]	8.8	–
U2OS [18]	–	1.07
Vero E6 [3]	–	2.08
Vero E6 [7]	5.2	–

drug-induced phospholipidosis [%], A549-ACE2
Conditions	0.3 µM	0.833333 µM	3.33333 µM	6.66667 µM	10 µM
24 h	2.74	-0.68	-0.71	22	29.2
48 h	2.03	-0.74	-5.67	–	–
72 h	3.76	-0.841	–	–	–
